Reference: patent US20070280972A1, “Adhesive solid gel-forming formulations for dermal drug delivery” (ZARS, Inc., priority 2006, published 2007)
Where two headings read alike, the source gives them in different places.

Columns and labels:
[1] = In vitro skin flux, Franz diffusion cell, hairless mouse skin; settings: for Skin Flux: excess drug, linear region 4-8 hours, mean ± SD of three; for steady state flux in solid gel-forming formulation compared with flux-enabling non-volatile solvent alone: Table 16 vs solvent tables; for Avg. Flux / Average Flux: mean and st. dev of three
[2] = Estimated therapeutically sufficient flux (steady state flux of marketed products, in vitro)
[3] = In vitro skin flux, Franz diffusion cell, human epidermal membrane / human cadaver skin; type: in vitro ADME; settings: for Skin Flux: 0.1% (w/w) clobetasol propionate, human cadaver skin (HEM), linear region 6-28 hours, mean ± SD of three
[4] = pH 7.4
[5] = In vitro skin flux, Franz diffusion cell, human epidermal membrane / human cadaver skin; type: in vitro ADME; settings: for duration over which steady-state delivery is shown: cumulative amount delivered across human cadaver skin from a solidified gel formulation (FIG. 1, FIG. 2)
[6] = non-volatile solvent system: Ethyl oleate, hairless mouse skin
[7] = non-volatile solvent system: Glycerol, hairless mouse skin
[8] = non-volatile solvent system: Isopropyl myristate, hairless mouse skin
[9] = non-volatile solvent system: Propylene glycol, hairless mouse skin
[10] = non-volatile solvent system: Span 20 (sorbitan laurate), hairless mouse skin
[11] = solvents isopropyl myristate, ethyl oleate, propylene glycol, and Span 20, hairless mouse skin
[12] = non-volatile solvent system: Oleic acid, hairless mouse skin
[13] = non-volatile solvent system: Polyethylene glycol 400, 200 mcL on hairless mouse skin
[14] = non-volatile solvent: Polyethylene glycol 400, hairless mouse skin
[15] = steady state flux of marketed product through hairless mouse or human epidermal membrane, method of Example 1, estimate
[16] = non-volatile solvent system: Isostearic acid, 200 mcL on hairless mouse skin

SMILES: O=C(O)Cc1ccccc1Nc1c(Cl)cccc1Cl [diclofenac sodium]
- Skin Flux [1, 6]: 14 ± 4 μg/cm^2/h
- Skin Flux [1, 7]: 1.7 ± 0.3 μg/cm^2/h
- Skin Flux [1, 8]: 13 ± 3 μg/cm^2/h
- Skin Flux [1, 9]: 30 ± 30 μg/cm^2/h
- Skin Flux [1, 10]: 98 ± 20 μg/cm^2/h
- steady state flux relative to flux value for glycerol [1, 11]: at least 10 times

SMILES: CC(C(=O)O)c1cccc(C(=O)c2ccccc2)c1 (stereo not shown) [Ketoprofen, ketoprofen]
- steady state flux in solid gel-forming formulation compared with flux-enabling non-volatile solvent alone ([1]; hairless mouse skin): lower
- Avg. Flux ([1]; high flux-enabling non-volatile solvent: Propylene glycol, hairless mouse skin): 90 ± 50 μg/cm2/h
- Skin Flux [1, 7]: 2 ± 1 μg/cm^2/h
- Skin Flux [1, 12]: 180 ± 20 μg/cm^2/h
- Skin Flux [1, 13]: 5 ± 2 μg/cm^2/h
- Skin Flux [1, 9]: 90 ± 50 μg/cm^2/h
- Skin Flux [1, 10]: 15 ± 3 μg/cm^2/h
- Average Flux [1, 14]: 5 ± 2 μg/cm2/hr
- Average Flux ([1]; non-volatile solvent: Span 20, hairless mouse skin): 15 ± 3 μg/cm2/hr
- Estimated Therapeutically sufficient flux [2, 15]: 16 μg/cm^2/h
- Estimated Therapeutically sufficient flux ([2]; steady state flux of marketed product through hairless mouse or human epidermal membrane, method of Example 1, estimate, listed as ketoprofen): about 16 μg/cm^2/h

SMILES: CC(C)Cn1cnc2c(N)nc3ccccc3c21 [Imiquimod, imiquimod]
- steady state flux in solid gel-forming formulation compared with flux-enabling non-volatile solvent alone ([1]; hairless mouse skin): unchanged
- Skin Flux [1, 7]: 0 μg/cm^2/h
- Skin Flux [1, 16]: 0.30 ± 0.06 μg/cm^2/h
- Skin Flux [1, 9]: 0.05 ± 0.02 μg/cm^2/h
- Skin Flux [1, 10]: 0.30 ± 0.05 μg/cm^2/h
- Skin Flux ([1]; non-volatile solvent system: Tween 60 (polyoxyethylene sorbitan monostearate), hairless mouse skin): 0.02 ± 0.01 μg/cm^2/h

SMILES: C[C@H]1C[C@H]2[C@@H]3CCC4=CC(=O)C=C[C@]4(C)[C@@]3(F)[C@@H](O)C[C@]2(C)[C@@]1(O)C(=O)CCl [Clobetasol]
- Estimated Therapeutically sufficient flux [2, 15]: 0.05 μg/cm^2/h

SMILES: CCC(=O)O[C@]1(C(=O)CCl)[C@@H](C)C[C@H]2[C@@H]3CCC4=CC(=O)C=C[C@]4(C)[C@@]3(F)[C@@H](O)C[C@@]21C [Clobetasol propionate, clobetasol propionate]
- Average Flux ([3]; all the neat non-volatile solutions studied, over a 30 hour time period, human cadaver skin): less than 50 ng/cm^2/hr
- Average Flux ([3]; non-volatile solvent: Isostearic acid (ISA), human epidermal membrane, mean and st. dev of three): 0.019 ± 0.003 μg/cm2/hr
- Average Flux ([3]; non-volatile solvent: Light mineral oil, human epidermal membrane, mean and st. dev of three): 0.031 ± 0.003 μg/cm2/hr
- Average Flux ([3]; non-volatile solvent: Propylene glycol, human epidermal membrane, mean and st. dev of three): 0.0038 ± 0.0004 μg/cm2/hr
- average flux relative to light mineral oil ([3]; propylene glycol and isostearic acid at a weight ratio of 9:1 vs light mineral oil): 20 times
- Skin Flux ([3]; solvent: Ethyl oleate): 19.4 ± 1.6 ng/cm^2/h
- Skin Flux ([3]; solvent: Glycerol): 7.0 ± 4.1 ng/cm^2/h
- Skin Flux ([3]; solvent: Isostearic acid (ISA)): 19.4 ± 3.2 ng/cm^2/h
- Skin Flux ([3]; solvent: Light mineral oil): 31.2 ± 3.4 ng/cm^2/h
- Skin Flux ([3]; solvent: Olive oil): 13.6 ± 3.3 ng/cm^2/h
- Avg. Flux ([3]; solvent: PG + ISA (Ratio of PG:ISA ranging from 200:1 to 1:1), value is for 9:1 mixture, human epidermal membrane): 0.8 ± 0.2 μg/cm2/h
- Skin Flux ([3]; solvent: Propylene glycol/ISA (9:1)): 764.7 ± 193.9 ng/cm^2/h
- Skin Flux ([3]; solvent: Propylene glycol, 200 mcl): 3.8 ± 0.4 ng/cm^2/h

SMILES: O=C(O)Cc1ccccc1Nc1c(Cl)cccc1Cl [diclofenac acid]
- Skin Flux [1, 6]: 7 ± 3 μg/cm^2/h
- Skin Flux [1, 7]: 0 μg/cm^2/h
- Skin Flux [1, 8]: 8 ± 3 μg/cm^2/h
- Skin Flux [1, 9]: 5 ± 2 μg/cm^2/h
- Skin Flux [1, 10]: 3 ± 1 μg/cm^2/h
- steady state flux relative to currently available marketed products [1, 11]: no more than 10 times

SMILES: C[C@]12CC[C@H]3[C@@H](CCC4=CC(=O)CC[C@@]43C)[C@@H]1CC[C@@H]2O [Testosterone, testosterone]
- Estimated Therapeutically sufficient flux [4]: 0.8 μg/cm^2/h

SMILES: O=C(O)Cc1ccccc1Nc1c(Cl)cccc1Cl [Diclofenac]
- duration over which steady-state delivery is shown [5]: 28 h
- steady state flux in solid gel-forming formulation compared with flux-enabling non-volatile solvent alone ([5]; formulation (Example 16) tested on human epidermal membrane, solvent on hairless mouse skin): lower
- Estimated Therapeutically sufficient flux [2, 15]: 1 μg/cm^2/h

SMILES: Nc1nc2c(ncn2COCCO)c(=O)[nH]1 [Acyclovir, acyclovir]
- steady state flux in solid gel-forming formulation compared with flux-enabling non-volatile solvent alone ([1]; hairless mouse skin): higher
- Avg. Flux ([1]; high flux-enabling non-volatile solvent: ISA + 30% trolamine, hairless mouse skin): 7 ± 2 μg/cm2/h
- Skin Flux ([1]; non-volatile solvent system: Ethyl oleate + 10% trolamine, hairless mouse skin): 0.2 ± 0.2 μg/cm^2/h
- Skin Flux [1, 6]: 0.2 ± 0.2 μg/cm^2/h
- Skin Flux ([1]; non-volatile solvent system: Isostearic acid + 10% trolamine, hairless mouse skin): 2.7 ± 0.6 μg/cm^2/h
- Skin Flux ([1]; non-volatile solvent system: Isostearic acid + 30% trolamine, hairless mouse skin): 7 ± 2 μg/cm^2/h
- Skin Flux [1, 16]: 0.1 ± 0.09 μg/cm^2/h
- Skin Flux ([1]; non-volatile solvent system: Oleic acid + 10% trolamine, hairless mouse skin): 3.7 ± 0.5 μg/cm^2/h
- Skin Flux ([1]; non-volatile solvent system: Oleic acid + 30% trolamine, hairless mouse skin): 14 ± 5 μg/cm^2/h
- Skin Flux [1, 12]: 0.4 ± 0.3 μg/cm^2/h
- Skin Flux [1, 13]: 0 μg/cm^2/h
- Skin Flux ([1]; non-volatile solvent system: Span 80 (sorbitan monooleate), hairless mouse skin): 0.07 ± 0.03 μg/cm^2/h
- Average Flux ([1]; non-volatile solvent: Isostearic acid + 10% trolamine, hairless mouse skin): 2.7 ± 0.6 μg/cm2/hr
- Average Flux [1, 14]: 0 μg/cm2/hr
- Estimated Therapeutically sufficient flux [2, 15]: 3 μg/cm^2/h
- Estimated Therapeutically sufficient flux ([2]; steady state flux of marketed product through hairless mouse or human epidermal membrane, method of Example 1, estimate, listed as acyclovir): about 3 μg/cm^2/h

SMILES: CCCN1CCCC[C@H]1C(=O)Nc1c(C)cccc1C [Ropivacaine, ropivacaine]
- steady state flux in solid gel-forming formulation compared with flux-enabling non-volatile solvent alone ([1]; hairless mouse skin): higher
- Avg. Flux ([1]; high flux-enabling non-volatile solvent: ISA, hairless mouse skin): 11 ± 2 μg/cm2/h
- Avg. Flux ([1]; high flux-enabling non-volatile solvent: Span 20, hairless mouse skin): 26 ± 8 μg/cm2/h
- Skin Flux [1, 7]: 1.2 ± 0.7 μg/cm^2/h
- Skin Flux [1, 16]: 11 ± 2 μg/cm^2/h
- Skin Flux ([1]; non-volatile solvent system: Mineral oil, hairless mouse skin): 8.9 ± 0.6 μg/cm^2/h
- Skin Flux [1, 10]: 26 ± 8 μg/cm^2/h
- Skin Flux ([1]; non-volatile solvent system: Tween 20 (polyoxyethylene sorbitan monolaurate), hairless mouse skin): 2.4 ± 0.1 μg/cm^2/h
- Average Flux ([1]; non-volatile solvent: Glycerol, hairless mouse skin): 1.2 ± 0.7 μg/cm2/hr
- Average Flux ([1]; non-volatile solvent: Mineral oil, hairless mouse skin): 8.9 ± 0.6 μg/cm2/hr
- duration over which steady-state delivery is shown [5]: 30 h
- Estimated Therapeutically sufficient flux ([2]; Estimated flux based on known potency relative to lidocaine): 5 μg/cm^2/h
- Estimated Therapeutically sufficient flux ([2]; Estimated flux based on known potency relative to lidocaine, listed as ropivacaine base): about 5 μg/cm^2/h
